The subject of the experiment is T1R1/T1R3 umami receptor. Nature of the experiment: In vitro screening of amino acids for ability to activate the T1R1/T1R3 receptor in the presence of 0.2 mM IMP. It counts as cell-based. The settings on record: FIG. 10.

The values that follow come from US20150282506A1, “FLAVOUR ADDITIVES” (MARS, INCORPORATED, priority 2012, published 2015).

For `NCCC[C@H](N)C(=O)O` [ornithine], the “activation of the T1R1/T1R3 umami receptor” value (“activation” below) is given as “do not activate”.

For the compound `NCCCC[C@H](N)C(=O)O` [lysine], the “activation” value is listed as “do not activate”.

As for `C[C@@H](O)[C@H](N)C(=O)O` [threonine], the “activation” value is given as “do not activate”. With `N=C(N)NCCC[C@H](N)C(=O)O` [arginine] the entry was “do not activate”; with `CC(C)[C@H](N)C(=O)O` [valine], “do not activate”. As for `N[C@@H](CCC(=O)O)C(=O)O` [glutamic acid], the “activation” value is on record as “do not activate”. With `NCCS(=O)(=O)O` [taurine], the “activation” value is listed as “do not activate”.

As to `N[C@@H](CSSC[C@H](N)C(=O)O)C(=O)O` [cystine], the “activation” value was “do not activate”. With `O=C(O)[C@@H]1CCCN1` [proline] the entry was “do not activate”. With `O=C(O)[C@@H]1C[C@@H](O)CN1` [hydroxyproline] the entry was “do not activate”; with `N[C@@H](CC(=O)O)C(=O)O` [aspartic acid], “do not activate”; with `CC[C@H](C)[C@H](N)C(=O)O` [isoleucine], “do not activate”. For `NC(=O)CC[C@H](N)C(=O)O` [glutamine] the value was “do not activate”.
